Source: paper PMC6407917, “Identification of GSK3186899/DDD853651 as a Preclinical Development Candidate for the Treatment of Visceral Leishmaniasis” (Journal of Medicinal Chemistry, 2018)

What was measured:
Experiment in all cases: biochemical
Design in all cases: species or system HEK293/K-562/placenta mixed human extract; Kinobeads chemoproteomic competition binding, quantified by TMT LC-MS/MS, dose response up to 20 uM
[1] = molecular target: PTK2 (Homo sapiens, UniProt Q05397)
[2] = molecular target: HCK (Homo sapiens, UniProt P08631)
[3] = molecular target: PTK2B (Homo sapiens, UniProt Q14289)
PTK2B, sequence (Q14289 whole entry): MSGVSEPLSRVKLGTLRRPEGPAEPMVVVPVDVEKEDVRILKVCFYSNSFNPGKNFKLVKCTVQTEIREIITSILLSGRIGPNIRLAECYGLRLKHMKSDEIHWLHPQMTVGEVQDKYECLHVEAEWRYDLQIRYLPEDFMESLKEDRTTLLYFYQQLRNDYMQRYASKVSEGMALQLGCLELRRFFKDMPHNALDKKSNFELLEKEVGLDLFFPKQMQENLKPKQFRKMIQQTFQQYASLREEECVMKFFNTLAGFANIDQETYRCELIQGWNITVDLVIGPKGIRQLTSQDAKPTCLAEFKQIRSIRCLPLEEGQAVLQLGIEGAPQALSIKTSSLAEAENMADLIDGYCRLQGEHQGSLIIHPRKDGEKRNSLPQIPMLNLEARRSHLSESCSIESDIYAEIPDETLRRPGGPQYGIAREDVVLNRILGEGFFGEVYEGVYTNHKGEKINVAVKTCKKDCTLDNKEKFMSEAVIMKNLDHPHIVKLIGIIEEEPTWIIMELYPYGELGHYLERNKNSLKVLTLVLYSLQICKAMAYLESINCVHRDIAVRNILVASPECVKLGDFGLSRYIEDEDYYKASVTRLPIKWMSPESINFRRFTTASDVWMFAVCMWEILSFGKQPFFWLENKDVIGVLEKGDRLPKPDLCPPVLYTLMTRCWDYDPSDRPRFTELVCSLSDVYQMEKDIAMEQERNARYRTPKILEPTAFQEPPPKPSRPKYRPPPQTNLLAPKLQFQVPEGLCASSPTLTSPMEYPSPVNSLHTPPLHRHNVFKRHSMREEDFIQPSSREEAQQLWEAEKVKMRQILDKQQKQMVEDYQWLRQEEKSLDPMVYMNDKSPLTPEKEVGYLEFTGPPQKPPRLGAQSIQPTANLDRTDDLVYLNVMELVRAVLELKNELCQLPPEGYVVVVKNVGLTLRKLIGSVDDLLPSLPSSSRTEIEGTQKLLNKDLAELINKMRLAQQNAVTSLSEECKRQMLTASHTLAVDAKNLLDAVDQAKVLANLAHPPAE

[4] = molecular target: IRAK1 (Homo sapiens, UniProt P51617)
[5] = molecular target: HIPK1 (Homo sapiens, UniProt Q86Z02)
HIPK1, sequence (Q86Z02 whole entry): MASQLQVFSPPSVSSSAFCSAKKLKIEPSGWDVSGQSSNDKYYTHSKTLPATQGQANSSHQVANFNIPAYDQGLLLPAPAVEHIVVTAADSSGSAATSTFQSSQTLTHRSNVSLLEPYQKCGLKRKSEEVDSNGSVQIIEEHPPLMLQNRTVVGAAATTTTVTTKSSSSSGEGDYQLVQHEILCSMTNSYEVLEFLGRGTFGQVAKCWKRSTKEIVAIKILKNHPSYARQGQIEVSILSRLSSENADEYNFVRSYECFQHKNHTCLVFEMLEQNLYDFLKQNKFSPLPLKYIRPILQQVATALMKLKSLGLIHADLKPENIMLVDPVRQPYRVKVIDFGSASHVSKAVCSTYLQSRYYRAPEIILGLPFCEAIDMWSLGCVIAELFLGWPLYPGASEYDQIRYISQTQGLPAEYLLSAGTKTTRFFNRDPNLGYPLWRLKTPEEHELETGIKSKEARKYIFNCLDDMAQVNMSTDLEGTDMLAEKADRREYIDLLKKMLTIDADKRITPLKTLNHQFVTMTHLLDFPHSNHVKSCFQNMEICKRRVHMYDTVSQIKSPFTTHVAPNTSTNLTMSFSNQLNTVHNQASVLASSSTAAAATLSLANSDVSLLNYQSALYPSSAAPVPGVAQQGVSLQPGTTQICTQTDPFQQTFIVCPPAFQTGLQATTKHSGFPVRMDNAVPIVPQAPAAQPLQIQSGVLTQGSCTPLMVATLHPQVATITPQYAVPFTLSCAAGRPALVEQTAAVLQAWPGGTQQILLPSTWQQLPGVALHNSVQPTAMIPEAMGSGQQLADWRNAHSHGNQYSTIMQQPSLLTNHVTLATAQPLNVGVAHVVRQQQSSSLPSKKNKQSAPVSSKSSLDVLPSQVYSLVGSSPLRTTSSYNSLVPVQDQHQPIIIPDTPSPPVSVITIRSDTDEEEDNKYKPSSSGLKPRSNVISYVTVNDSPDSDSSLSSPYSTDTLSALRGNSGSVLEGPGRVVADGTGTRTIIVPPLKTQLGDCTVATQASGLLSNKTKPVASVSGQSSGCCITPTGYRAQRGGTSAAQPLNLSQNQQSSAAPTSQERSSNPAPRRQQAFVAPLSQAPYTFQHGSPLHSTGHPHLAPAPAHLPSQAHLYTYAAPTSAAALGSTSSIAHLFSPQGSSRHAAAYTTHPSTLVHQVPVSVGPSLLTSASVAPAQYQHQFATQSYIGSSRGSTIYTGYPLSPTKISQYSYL

[6] = molecular target: PLK1 (Homo sapiens, UniProt P53350)
[7] = molecular target: IKBKB (Homo sapiens, UniProt O14920)
[8] = molecular target: EPHA4 (Homo sapiens, UniProt P54764)
[9] = molecular target: ERN1 (Homo sapiens, UniProt O75460)
[10] = molecular target: CDC42BPA (Homo sapiens, UniProt Q5VT25)
[11] = molecular target: DAPK3 (Homo sapiens, UniProt O43293)
[12] = molecular target: STK3 (Homo sapiens, UniProt Q13188)
[13] = molecular target: LRRK2 (Homo sapiens, UniProt Q5S007)
[14] = molecular target: PRKDC (Homo sapiens, UniProt P78527)
[15] = molecular target: IKBKG (Homo sapiens, UniProt Q9Y6K9)
IKBKG, sequence (Q9Y6K9 whole entry): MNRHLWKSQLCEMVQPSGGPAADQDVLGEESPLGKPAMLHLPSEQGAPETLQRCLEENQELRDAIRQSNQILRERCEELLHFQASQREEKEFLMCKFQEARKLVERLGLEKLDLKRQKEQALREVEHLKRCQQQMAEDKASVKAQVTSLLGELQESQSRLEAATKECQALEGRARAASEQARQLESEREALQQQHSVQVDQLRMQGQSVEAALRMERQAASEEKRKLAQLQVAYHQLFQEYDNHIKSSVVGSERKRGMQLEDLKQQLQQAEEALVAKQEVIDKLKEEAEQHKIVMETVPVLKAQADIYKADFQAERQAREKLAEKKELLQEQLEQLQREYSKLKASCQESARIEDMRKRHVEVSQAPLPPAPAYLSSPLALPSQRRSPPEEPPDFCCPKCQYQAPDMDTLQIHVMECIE

[16] = molecular target: CAMK2B (Homo sapiens, UniProt Q13554)
[17] = molecular target: FGR (Homo sapiens, UniProt P09769)
[18] = molecular target: MAPK14 (Homo sapiens, UniProt Q16539)
MAPK14, sequence (Q16539 whole entry): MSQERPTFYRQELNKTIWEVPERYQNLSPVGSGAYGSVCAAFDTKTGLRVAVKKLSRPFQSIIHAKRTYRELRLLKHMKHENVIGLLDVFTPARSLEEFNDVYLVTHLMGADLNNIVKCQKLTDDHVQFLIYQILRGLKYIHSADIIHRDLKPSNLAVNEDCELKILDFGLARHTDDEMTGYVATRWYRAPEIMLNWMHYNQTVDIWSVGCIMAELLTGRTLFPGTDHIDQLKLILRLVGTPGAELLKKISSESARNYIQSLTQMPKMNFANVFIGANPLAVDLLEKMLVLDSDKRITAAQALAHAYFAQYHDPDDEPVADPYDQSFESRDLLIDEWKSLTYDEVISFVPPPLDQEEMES

[19] = molecular target: PFKL (Homo sapiens, UniProt P17858)
[20] = molecular target: MAPK11 (Homo sapiens, UniProt Q15759)
[21] = molecular target: RPS6KA3 (Homo sapiens, UniProt P51812)
RPS6KA3, sequence (P51812 whole entry): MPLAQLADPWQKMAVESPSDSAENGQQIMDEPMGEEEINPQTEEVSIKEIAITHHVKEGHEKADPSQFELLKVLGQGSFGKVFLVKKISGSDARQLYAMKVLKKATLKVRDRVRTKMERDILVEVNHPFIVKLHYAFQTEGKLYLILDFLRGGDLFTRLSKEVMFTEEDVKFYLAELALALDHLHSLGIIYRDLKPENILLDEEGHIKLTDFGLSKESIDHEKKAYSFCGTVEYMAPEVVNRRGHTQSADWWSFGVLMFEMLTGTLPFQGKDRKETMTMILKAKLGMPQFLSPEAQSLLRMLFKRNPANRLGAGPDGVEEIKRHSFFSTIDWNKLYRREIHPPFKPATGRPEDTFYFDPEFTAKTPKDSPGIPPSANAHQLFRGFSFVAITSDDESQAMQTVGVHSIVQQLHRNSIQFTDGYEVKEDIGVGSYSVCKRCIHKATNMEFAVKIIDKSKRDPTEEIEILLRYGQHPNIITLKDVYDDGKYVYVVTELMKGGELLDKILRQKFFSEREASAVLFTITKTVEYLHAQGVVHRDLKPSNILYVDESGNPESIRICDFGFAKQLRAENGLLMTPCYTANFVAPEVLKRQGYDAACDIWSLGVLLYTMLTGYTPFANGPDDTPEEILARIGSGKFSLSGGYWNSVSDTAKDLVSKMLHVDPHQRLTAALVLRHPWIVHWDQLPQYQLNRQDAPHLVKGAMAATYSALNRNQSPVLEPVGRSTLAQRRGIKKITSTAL

Measured: IC50

PTK2, sequence (Q05397 whole entry): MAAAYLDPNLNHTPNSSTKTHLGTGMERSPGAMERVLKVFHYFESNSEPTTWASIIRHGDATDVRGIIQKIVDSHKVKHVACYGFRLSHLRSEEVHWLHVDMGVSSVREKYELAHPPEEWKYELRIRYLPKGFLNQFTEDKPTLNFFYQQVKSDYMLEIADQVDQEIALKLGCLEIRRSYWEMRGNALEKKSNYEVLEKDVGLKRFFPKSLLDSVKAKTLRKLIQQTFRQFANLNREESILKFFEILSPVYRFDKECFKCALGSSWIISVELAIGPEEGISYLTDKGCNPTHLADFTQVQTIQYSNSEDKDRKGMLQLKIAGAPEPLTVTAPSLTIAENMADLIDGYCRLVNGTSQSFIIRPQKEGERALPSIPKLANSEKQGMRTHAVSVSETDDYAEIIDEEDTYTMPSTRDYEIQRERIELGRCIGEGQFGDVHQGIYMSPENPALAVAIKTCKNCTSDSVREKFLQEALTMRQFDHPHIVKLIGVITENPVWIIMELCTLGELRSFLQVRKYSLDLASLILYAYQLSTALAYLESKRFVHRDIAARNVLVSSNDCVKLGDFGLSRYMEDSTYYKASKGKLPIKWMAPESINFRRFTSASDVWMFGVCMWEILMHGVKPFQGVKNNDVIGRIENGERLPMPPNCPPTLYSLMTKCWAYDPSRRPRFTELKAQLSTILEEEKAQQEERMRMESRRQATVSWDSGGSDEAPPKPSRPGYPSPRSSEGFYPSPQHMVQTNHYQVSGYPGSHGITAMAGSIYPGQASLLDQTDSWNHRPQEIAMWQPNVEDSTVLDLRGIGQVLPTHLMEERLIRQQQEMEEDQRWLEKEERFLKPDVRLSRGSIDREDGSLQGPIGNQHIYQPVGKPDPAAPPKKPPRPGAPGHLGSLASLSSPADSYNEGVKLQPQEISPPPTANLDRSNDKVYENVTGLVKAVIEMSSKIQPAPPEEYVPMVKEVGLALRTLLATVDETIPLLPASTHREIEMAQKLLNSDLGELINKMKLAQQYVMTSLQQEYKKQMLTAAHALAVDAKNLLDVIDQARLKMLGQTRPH

COc1ccccc1-c1n[nH]c2nc(N[C@H]3CC[C@H](NS(=O)(=O)CCC(F)(F)F)CC3)nc(OC)c12 [compound 31, 3,3,3-Trifluoro-N-(trans-4-((4-methoxy-3-(2-methoxyphenyl)-1H-pyrazolo[3,4-d]pyrimidin-6-yl)amino)cyclohexyl)propane-1-sulfonamide]
≥ 20 µM: all assays above
